Experimental data reported in patent US9079866B2, “Flap modulators” (JANSSEN PHARMACEUTICA NV, priority 2013, dated 2015).
Structures can show the parent of a compound that is named as a salt. Where two headings read alike, the source gives them in different places.

Tests used:
[1] = tested on: leukotriene pathway in human whole blood (LTB4 levels); experiment: Human whole blood assay (A23187-stimulated LTB4); type: cell-based; conditions: Homo sapiens, human whole blood diluted 1:1 in RPMI, A23187-stimulated LTB4; read-out: LTB4 IC50 1:1
Procedure, shortened: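 Single-replicate data from at least one healthy donor: compound pre-incubated 15 min at 37° Celsius in 1:1 RPMI-diluted heparinised blood, followed by 30 min calcium ionophore A23187 (7 μg/mL) challenge at 37° Celsius. LTB4 in plasma quantified by kit; IC50 via 4-parameter equation.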

human FLAP = human FLAP (Homo sapiens (Human), UniProt P20292); experiment: FLAP binding assay (HTRF format)
Procedure, shortened: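 HTRF ratio read-out; two independent plates, samples in duplicate on each, values averaged across plates.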

[2] = human FLAP wild type, HTRF format, average of two plates, duplicates
[3] = read-out: FLAP Binding wild type HTRF Ki

Sequence of human FLAP (P20292 whole entry): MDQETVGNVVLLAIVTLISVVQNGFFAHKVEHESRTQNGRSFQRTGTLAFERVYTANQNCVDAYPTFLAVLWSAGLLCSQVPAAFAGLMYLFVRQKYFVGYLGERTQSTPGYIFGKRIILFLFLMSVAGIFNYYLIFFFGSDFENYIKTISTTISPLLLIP

| IC50 [1] | Ki (human FLAP; [2]) | Compound | Ki (human FLAP; [3]) |
| --- | --- | --- | --- |
| 325 nM | 23 nM | Nc1ncc(-c2ccc(-c3ccccc3S(=O)(=O)N3CCC[C@@H]3CO)cc2F)cn1 [Example 276, [(2R)-1-{[4′-(2-Aminopyrimidin-5-yl)-3′-fluorobiphenyl-2-yl]sulfonyl}pyrrolidin-2-yl]methanol trifluoroacetic acid salt] | – |
| > 1000 nM | 52 nM | Nc1ncc(-c2ccc(-c3ccccc3S(=O)(=O)N3CCC[C@H]3CO)cc2F)cn1 [Example 277, [(2S)-1-{[4′-(2-Aminopyrimidin-5-yl)-3′-fluorobiphenyl-2-yl]sulfonyl}pyrrolidin-2-yl]methanol trifluoroacetic acid salt] | – |
| 95 nM | 36 nM | C[C@@H](O)CNS(=O)(=O)c1ccccc1-c1ccc(-c2cnc(N)nc2)c(F)c1 [Example 278, 4′-(2-Aminopyrimidin-5-yl)-3′-fluoro-N-[(2R)-2-hydroxypropyl]biphenyl-2-sulfonamide-trifluoroacetic acid salt] | – |
| 149 nM | 70 nM | C[C@H](O)CNS(=O)(=O)c1ccccc1-c1ccc(-c2cnc(N)nc2)c(F)c1 [Example 279, 4′-(2-Aminopyrimidin-5-yl)-3′-fluoro-N-[(2S)-2-hydroxypropyl]biphenyl-2-sulfonamide trifluoroacetic acid salt] | – |
| 119 nM | 9 nM | Nc1ncc(-c2ccc(-c3ccccc3S(=O)(=O)NCC3CC3)cc2F)cn1 [Example 283, 4′-(2-Aminopyrimidin-5-yl)-N-(cyclopropylmethyl)-3′-fluorobiphenyl-2-sulfonamide trifluoroacetic acid] | – |
| 1040 nM | 42 nM | Nc1ncc(-c2ccc(-c3ccccc3S(=O)(=O)NC3CC3)cc2F)cn1 [Example 284, 4′-(2-Aminopyrimidin-5-yl)-N-cyclopropyl-3′-fluorobiphenyl-2-sulfonamide trifluoroacetic acid salt] | – |
| 111 nM | 3 nM | Nc1ncc(-c2ccc(-c3ccccc3S(=O)(=O)Nc3ccccc3)cc2F)cn1 [Example 285, 4′-(2-Aminopyrimidin-5-yl)-3′-fluoro-N-phenylbiphenyl-2-sulfonamide trifluoroacetic acid salt] | – |
| 206 nM | 142 nM | C[C@@H](CO)NS(=O)(=O)c1ccccc1-c1ccc(-c2cnc(N)nc2)c(F)c1 [Example 286, 4′-(2-Aminopyrimidin-5-yl)-3′-fluoro-N-[(1S)-2-hydroxy-1-methylethyl]biphenyl-2-sulfonamide trifluoroacetic acid salt] | – |
| 74 nM | 9 nM | Cc1cccc(-c2ccc(-c3cnc(N)nc3)c(F)c2)c1S(=O)(=O)NC(C)(C)C [Example 287, 4′-(2-Aminopyrimidin-5-yl)-N-tert-butyl-3′-fluoro-3-methylbiphenyl-2-sulfonamide trifluoroacetic acid salt] | – |
| 420 nM | 103 nM | CNS(=O)(=O)c1ccccc1-c1ccc(-c2cnc(N)nc2)c(F)c1 [Example 288, 4′-(2-Aminopyrimidin-5-yl)-3′-fluoro-N-methylbiphenyl-2-sulfonamide trifluoroacetic acid salt] | – |
| 36 nM | 22 nM | C[C@H](CO)NS(=O)(=O)c1ccccc1-c1ccc(-c2cnc(N)nc2)c(F)c1 [Example 289, 4′-(2-Aminopyrimidin-5-yl)-3′-fluoro-N-[(1R)-2-hydroxy-1-methylethyl]biphenyl-2-sulfonamide] | – |
| 248 nM | 2 nM | CC(C)CNS(=O)(=O)c1ccccc1-c1ccc(-c2cnc(N)nc2)c(F)c1 [Example 294, 4′-(2-Aminopyrimidin-5-yl)-3′-fluoro-N-(2-methylpropyl)biphenyl-2-sulfonamide trifluoroacetic acid salt] | – |
| 110 nM | 25 nM | CCNS(=O)(=O)c1ccccc1-c1ccc(-c2cnc(N)nc2)c(F)c1 [Example 295, 4′-(2-Aminopyrimidin-5-yl)-N-ethyl-3′-fluorobiphenyl-2-sulfonamide trifluoroacetic acid salt] | – |
| 66 nM | 5 nM | CC(C)(NS(=O)(=O)c1ccccc1-c1ccc(-c2cnc(N)nc2)c(F)c1)C(F)(F)F [Example 296, 4′-(2-Aminopyrimidin-5-yl)-3′-fluoro-N-(2,2,2-trifluoro-1,1-dimethylethyl)biphenyl-2-sulfonamide trifluoroacetic acid salt] | – |
| 120 nM | 13 nM | CCN(CC)S(=O)(=O)c1ccccc1-c1ccc(-c2cnc(N)nc2)c(F)c1 [Example 300, 4′-(2-Aminopyrimidin-5-yl)-N,N-diethyl-3′-fluorobiphenyl-2-sulfonamide trifluoroacetic acid salt] | – |
| 204 nM | 13 nM | Nc1ncc(-c2ccc(-c3ccccc3S(=O)(=O)N3CCCCC3)cc2F)cn1 [Example 301, 5-[3-Fluoro-2′-(piperidin-1-ylsulfonyl)biphenyl-4-yl]pyrimidin-2-amine trifluoroacetic acid salt] | – |
| 78 nM | 2 nM | CC(C)(C)NS(=O)(=O)c1ccccc1-c1ccc(-c2cnc(N)nc2)c(F)c1 [Example 305, 4′-(2-Aminopyrimidin-5-yl)-N-(tert-butyl)-3′-fluoro-[1,1′-biphenyl]-2-sulfonamide trifluoroacetic acid salt] | – |
| 416 nM | 4 nM | C[C@H](NS(=O)(=O)c1ccccc1-c1ccc(-c2cnc(N)nc2)c(F)c1)C(=O)OC(C)(C)C [Example 307, tert-Butyl N-{[4′-(2-aminopyrimidin-5-yl)-3′-fluorobiphenyl-2-yl]sulfonyl}-L-alaninate] | – |
| 1780 nM | 214 nM | Nc1ncc(-c2ccc(-c3ccccc3NS(=O)(=O)N3CCCC3)cc2F)cn1 [Example 309, N-[4′-(2-Aminopyrimidin-5-yl)-3′-fluorobiphenyl-2-yl]pyrrolidine-1-sulfonamide] | – |
| 376 nM | 262 nM | Nc1ncc(-c2ccc(-c3ccccc3S(=O)(=O)N3CC4(COC4)C3)cc2F)cn1 [Example 312, 5-(2′-(2-Oxa-6-azaspiro[3.3]heptan-6-ylsulfonyl)-3-fluoro-[1,1′-biphenyl]-4-yl)pyrimidin-2-amine] | – |
| 574 nM | 397 nM | Nc1ncc(-c2ccc(-c3ccccc3S(=O)(=O)N3CC4(C3)CS(=O)(=O)C4)cc2F)cn1 [Example 313, 6-((4′-(2-Aminopyrimidin-5-yl)-3′-fluoro-[1,1′-biphenyl]-2-yl)sulfonyl)-2-thia-6-azaspiro[3.3]heptane 2,2-dioxide] | – |
| > 10000 nM | 335 nM | Nc1ncc(-c2ccc(-c3ccccc3S(=O)(=O)Cc3nc4ccccc4c(=O)[nH]3)cc2F)cn1 [Example 317, 2-(((4′-(2-Aminopyrimidin-5-yl)-3′-fluoro-[1,1′-biphenyl]-2-yl)sulfonyl)methyl)quinazolin-4(3H)-one] | – |
| 2000 nM | 689 nM | Nc1ncc(-c2ccc(-c3ccccc3S(=O)(=O)CCCn3c(=O)[nH]c4ccccc43)cc2F)cn1 [Example 318, 1-(3-((4′-(2-Aminopyrimidin-5-yl)-3′-fluoro-[1,1′-biphenyl]-2-yl)sulfonyl)propyl)-1H-benzo[d]imidazol-2(3H)-one] | – |
| 3260 nM | 204 nM | Nc1ncc(-c2ccc(-c3ccccc3S(=O)(=O)CCCS(=O)(=O)C3CCCCC3)cc2F)cn1 [Example 319, 5-(2′-{[3-(Cyclohexylsulfonyl)propyl]sulfonyl}-3-fluorobiphenyl-4-yl)pyrimidin-2-amine] | – |
| 1080 nM | 129 nM | Cn1c(S(=O)(=O)c2ccccc2-c2ccc(-c3cnc(N)nc3)c(F)c2)nc2ccccc21 [Example 320, 5-{3-Fluoro-2′-[(1-methyl-1H-benzimidazol-2-yl)sulfonyl]biphenyl-4-yl}pyrimidin-2-amine] | – |

| Compound | IC50 [1] | Ki (human FLAP; [2]) | Ki (human FLAP; [3]) |
| --- | --- | --- | --- |
| CC(C)(CO)NS(=O)(=O)c1ccccc1-c1ccc(-c2cnc(N)nc2)c(F)c1 [Example 280, 4′-(2-Aminopyrimidin-5-yl)-3′-fluoro-N-(2-hydroxy-1,1-dimethylethyl)biphenyl-2-sulfonamide trifluoroacetic acid salt] | 87 nM | – | 3 nM |
| Nc1ncc(-c2ccc(-c3ccccc3S(=O)(=O)N3CCN(CCO)CC3)cc2F)cn1 [Example 282, 2-(4-{[4′-(2-Aminopyrimidin-5-yl)-3′-fluorobiphenyl-2-yl]sulfonyl}piperazin-1-yl)ethanol trifluoroacetic acid salt] | 280 nM | – | 750 nM |
| Nc1ncc(-c2ccc(-c3ccccc3S(=O)(=O)N[C@H](c3ccccc3)C(F)(F)F)cc2F)cn1 [Example 291, 4′-(2-Aminopyrimidin-5-yl)-3′-fluoro-N-[(1R)-2,2,2-trifluoro-1-phenylethyl]biphenyl-2-sulfonamide trifluoroacetic acid salt] | 421 nM | – | 7 nM |
| Nc1ncc(-c2ccc(-c3ccccc3S(=O)(=O)N[C@@H](c3ccccc3)C(F)(F)F)cc2F)cn1 [Example 292, 4′-(2-Aminopyrimidin-5-yl)-3′-fluoro-N-[(1S)-2,2,2-trifluoro-1-phenylethyl]biphenyl-2-sulfonamide trifluoroacetic acid salt] | 1030 nM | – | 12 nM |
| C[C@H](NS(=O)(=O)c1ccccc1-c1ccc(-c2cnc(N)nc2)c(F)c1)C(F)(F)F [Example 297, 4′-(2-Aminopyrimidin-5-yl)-3′-fluoro-N-[(1S)-2,2,2-trifluoro-1-methylethyl]biphenyl-2-sulfonamide trifluoroacetic acid salt] | 45 nM | – | 5 nM |
| Nc1ncc(-c2ccc(-c3ccccc3S(=O)(=O)N3CC(O)(C(F)(F)F)C3)cc2F)cn1 [Example 315, 1-((4′-(2-Aminopyrimidin-5-yl)-3′-fluoro-[1,1′-biphenyl]-2-yl)sulfonyl)-3-(trifluoromethyl)azetidin-3-ol] | 27 nM | – | 1 nM |
